Columns and labels:
Test in all cases: relative viability (nuclei count vs DMSO), 5 days (fraction); higher = more cells survive
[1] = system: EMC-BAC-2
In short: (§1)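 Each reported value is a median over duplicate plates. It expresses relative viability: treated-well nuclei count divided by vehicle-well nuclei count. Lung cancer cell lines in 1536-well plates were dosed by pin tool a day after seeding, alone with one drug or with a fixed anchor-drug dose plus five library-drug doses (not always all listed) in √10 steps, and nuclei were counted after 5 days.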

[2] = system: NCI-H1650
In short: as §1

[3] = system: NCI-H1915
In short: as §1

[4] = system: NCI-H2347
In short: as §1

[5] = system: LCLC-97TM1
In short: as §1

[6] = system: H3255
In short: as §1

[7] = system: NCI-H2009
In short: as §1

[8] = system: NCI-H1993
In short: as §1

[9] = system: BEN
In short: as §1

[10] = system: NCI-H2342
In short: as §1

[11] = system: NCI-H358
In short: as §1

[12] = system: NCI-H2023
In short: as §1

[13] = system: NCI-H2085
In short: as §1

[14] = system: NCI-H727
In short: as §1

[15] = system: SW 1573
In short: as §1

[16] = system: HOP-62
In short: as §1

[17] = system: NCI-H2126
In short: as §1

[18] = system: NCI-H322M
In short: as §1

[19] = system: NCI-H661
In short: as §1

[20] = system: PC-14
In short: as §1

[21] = system: LXF-289
In short: as §1

[22] = system: SK-LU-1
In short: as §1

[23] = system: NCI-H647
In short: as §1

## C[C@@H]1CN(CC(=O)Nc2ccc3c(c2)Cc2cccc(-c4cc(=O)cc(N5CCOCC5)o4)c2S3)C[C@H](C)O1 + Nc1ncn([C@H]2C[C@H](O)[C@@H](CO)O2)c(=O)n1 [Decitabine] (partner 2 µM)
[1]; first compound 0.04 µM
  relative viability: 0.887
[1]; first compound 0.1265 µM
  relative viability: 1.05
[1]; first compound 0.4 µM
  relative viability: 0.948
[1]; first compound 4 µM
  relative viability: 0.827
[2]; first compound 0.04 µM
  relative viability: 0.492
[2]; first compound 0.1265 µM
  relative viability: 0.44
[2]; first compound 0.4 µM
  relative viability: 0.488
[2]; first compound 4 µM
  relative viability: 0.499
[3]; first compound 0.04 µM
  relative viability: 0.259
[3]; first compound 0.1265 µM
  relative viability: 0.279
[3]; first compound 0.4 µM
  relative viability: 0.283
[3]; first compound 4 µM
  relative viability: 0.29
[4]; first compound 0.04 µM
  relative viability: 0.581
[4]; first compound 0.1265 µM
  relative viability: 0.624
[4]; first compound 0.4 µM
  relative viability: 0.693
[4]; first compound 4 µM
  relative viability: 0.637
[5]; first compound 0.1265 µM
  relative viability: 0.231
[5]; first compound 0.4 µM
  relative viability: 0.279
[5]; first compound 4 µM
  relative viability: 0.273
[6]; first compound 0.04 µM
  relative viability: 0.682
[6]; first compound 0.1265 µM
  relative viability: 0.615
[6]; first compound 0.4 µM
  relative viability: 0.558
[6]; first compound 4 µM
  relative viability: 0.509
[7]; first compound 0.04 µM
  relative viability: 0.31
[7]; first compound 0.1265 µM
  relative viability: 0.363
[7]; first compound 0.4 µM
  relative viability: 0.383
[7]; first compound 4 µM
  relative viability: 0.34
[8]; first compound 0.04 µM
  relative viability: 0.701
[8]; first compound 0.1265 µM
  relative viability: 0.55
[8]; first compound 0.4 µM
  relative viability: 0.566
[8]; first compound 4 µM
  relative viability: 0.644
[9]; first compound 0.04 µM
  relative viability: 0.702
[9]; first compound 0.1265 µM
  relative viability: 0.696
[9]; first compound 0.4 µM
  relative viability: 0.81
[9]; first compound 4 µM
  relative viability: 0.735
[10]; first compound 0.04 µM
  relative viability: 0.76
[10]; first compound 0.1265 µM
  relative viability: 0.779
[10]; first compound 0.4 µM
  relative viability: 0.71
[10]; first compound 4 µM
  relative viability: 0.704
[11]; first compound 0.04 µM
  relative viability: 0.181
[11]; first compound 0.1265 µM
  relative viability: 0.204
[11]; first compound 0.4 µM
  relative viability: 0.172
[11]; first compound 4 µM
  relative viability: 0.14
[12]; first compound 0.04 µM
  relative viability: 0.197
[12]; first compound 0.1265 µM
  relative viability: 0.227
[12]; first compound 0.4 µM
  relative viability: 0.225
[12]; first compound 4 µM
  relative viability: 0.224
[13]; first compound 0.04 µM
  relative viability: 0.564
[13]; first compound 0.1265 µM
  relative viability: 0.589
[13]; first compound 0.4 µM
  relative viability: 0.605
[13]; first compound 4 µM
  relative viability: 0.584
[14]; first compound 0.04 µM
  relative viability: 1.14
[14]; first compound 0.1265 µM
  relative viability: 1
[14]; first compound 0.4 µM
  relative viability: 0.99
[14]; first compound 4 µM
  relative viability: 0.8
[15]; first compound 0.04 µM
  relative viability: 0.572
[15]; first compound 0.1265 µM
  relative viability: 0.56
[15]; first compound 0.4 µM
  relative viability: 0.483
[15]; first compound 4 µM
  relative viability: 0.615
[16]; first compound 0.04 µM
  relative viability: 0.229
[16]; first compound 0.1265 µM
  relative viability: 0.202
[16]; first compound 0.4 µM
  relative viability: 0.187
[16]; first compound 4 µM
  relative viability: 0.245
[17]; first compound 0.04 µM
  relative viability: 0.543
[17]; first compound 0.1265 µM
  relative viability: 0.567
[17]; first compound 0.4 µM
  relative viability: 0.623
[17]; first compound 4 µM
  relative viability: 0.593
[18]; first compound 0.04 µM
  relative viability: 0.526
[18]; first compound 0.1265 µM
  relative viability: 0.723
[18]; first compound 0.4 µM
  relative viability: 0.657
[18]; first compound 4 µM
  relative viability: 0.638
[19]; first compound 0.04 µM
  relative viability: 0.496
[19]; first compound 0.1265 µM
  relative viability: 0.534
[19]; first compound 0.4 µM
  relative viability: 0.623
[19]; first compound 4 µM
  relative viability: 0.65
[20]; first compound 0.04 µM
  relative viability: 0.235
[20]; first compound 0.1265 µM
  relative viability: 0.253
[20]; first compound 0.4 µM
  relative viability: 0.192
[20]; first compound 4 µM
  relative viability: 0.167
[21]; first compound 0.04 µM
  relative viability: 0.374
[21]; first compound 0.1265 µM
  relative viability: 0.354
[21]; first compound 0.4 µM
  relative viability: 0.419
[21]; first compound 4 µM
  relative viability: 0.419
[22]; first compound 0.04 µM
  relative viability: 0.693
[22]; first compound 0.1265 µM
  relative viability: 0.719
[22]; first compound 0.4 µM
  relative viability: 0.646
[22]; first compound 4 µM
  relative viability: 0.59
[23]; first compound 0.04 µM
  relative viability: 0.442
[23]; first compound 0.1265 µM
  relative viability: 0.376
[23]; first compound 0.4 µM
  relative viability: 0.369
[23]; first compound 4 µM
  relative viability: 0.346

— the supplement of paper PMC10307832
